Data reported in patent US6103709A (priority 1998, dated 2000).

Legend:
[1] = system: vitamin D-deficient chick; assay: Intestinal Ca2+ absorption (ICA) in vitamin D-deficient chick; format: in vivo; details: i.m.; for Classic Vit D Responses ICA: relative to 100 pmol 1α,25(OH)2 D3 = 100%, 12 h before assay
VDRmem = assay: Rapid response (summary classification); details: for Rapid Response: Yes/No, Tables 1 and 6
VDRnuc = assay: Genomic response (summary classification); details: Yes/No, Tables 1 and 6
[2] = target: T1, human vitamin D-binding protein (hDBP) (Homo sapiens, UniProt P02774); assay: Relative Competitive Index assay, vitamin D-binding protein; details: for Vit D Binding Protein (RCI): RCI of 1α,25(OH)2 D3 set to 100, 4° C., pH 7.4; for DBP binding (in words): compared with 1α,25(OH)2 D3
T1 sequence (P02774 17-474): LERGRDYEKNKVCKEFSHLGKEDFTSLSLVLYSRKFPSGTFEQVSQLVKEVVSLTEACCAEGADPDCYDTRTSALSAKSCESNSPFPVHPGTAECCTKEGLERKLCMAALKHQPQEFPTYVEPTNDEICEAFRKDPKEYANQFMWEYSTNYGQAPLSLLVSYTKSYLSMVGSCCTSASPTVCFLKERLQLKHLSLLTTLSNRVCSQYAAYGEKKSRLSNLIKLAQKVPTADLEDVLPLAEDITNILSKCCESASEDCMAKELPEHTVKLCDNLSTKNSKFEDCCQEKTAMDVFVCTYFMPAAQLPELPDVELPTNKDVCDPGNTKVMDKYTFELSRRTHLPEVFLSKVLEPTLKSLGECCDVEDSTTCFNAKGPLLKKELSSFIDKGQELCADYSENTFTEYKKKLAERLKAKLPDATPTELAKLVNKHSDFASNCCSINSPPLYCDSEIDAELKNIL
Excerpt: The compared analogs are 14α,15α-methano-1α,25(OH)2 D3 (LO), 22(m(dimethylhydroxymethyl)phenyl)-23,24,25,26,27-pentanor-1α- OH-D3 (EV) and (22R)-1,25(OH)2 -22,23,diene-D3 (HR), all conformationally flexible genomic agonists. By definition the RCI for 1α,25(OH)2 D3 is set to 100%. The data seen in FIG. 7 represent the mean of three determinations.
Vitamin D-Binding Protein Assay Relative Competitive Index
This example describes a Relative Competitive Index Assay used for determination of analogs binding affinity to vitamin D-binding protein.
Phase separation was then obtained by the addition of 0.5 ml of cold dextran-coated charcoal.
The data was plotted as [competitor]/[[^3 H]25(OH)D3 ] vs. 1/[fraction bound]. The RCI was calculated as [slope of competitor]/[slopefor 25(OH)D3 ]×100. Results are seen in FIG. 7. Although each analog was assayed in competition with [^3 H]25(OH)D3, the data are expressed as relative to the binding of 1α,25(OH)2 D3, with its RCI set to 100.

rapid responses (VDRmem) = assay: Antagonist function (summary classification); details: Yes/No, Tables 1 and 6
[3] = system: vitamin D-deficient chick; assay: Bone Ca2+ mobilizing activity (BCM) in vitamin D-deficient chick; format: in vivo; details: i.m.; for Classic Vit D Responses BCM: relative to 100 pmol 1α,25(OH)2 D3 = 100%, 12 h before assay

RCI for DBP, times greater than 1α,25(OH)2 D3 ([2]; relative to reference 1α,25(OH)2 D3) [times] | Binding to DBP relative to 1α,25(OH)2 D3 (RCI, FIG. 7) ([2]; 1α,25(OH)2 D3 = 100%, mean of three determinations) [%] | SMILES | Classic Vit D Responses ICA [1] [%] | genomic and/or rapid responses elicited (in words) (VDRmem) | Rapid Response (VDRmem) | Genomic Response (VDRnuc) | Vit D Binding Protein (RCI) [2] | DBP binding (in words) [2] | Antagonist (rapid responses (VDRmem)) | Classic Vit D Responses BCM [3] [%] | ICA (in words) ([1]; vitamin D-deficient chick) | BCM (in words) ([3]; vitamin D-deficient chick)
– | – | C[C@H](CCCC(C)(C)O)[C@H]1CC[C@H]2C3=CC=C4C[C@@H](O)C[C@H](O)[C@@]4(C)[C@H]3CC[C@]12C [JO] | 0.6 | elicit solely rapid responses | Yes | No | 2.0 | lower than 1α,25(OH)2 D3 | No | 0.03 | – | –
– | – | C[C@H](CCCC(C)(C)O)[C@H]1CC[C@H]2C3=CC=C4C[C@@H](O)C[C@H](O)[C@]4(C)[C@@H]3CC[C@]12C [JP] | 0.5 | elicit solely rapid responses | Yes | No | -5.0 | lower than 1α,25(OH)2 D3 | No | 0.8 | – | –
– | – | CC1=C(C=C=C2CCC[C@]3(C)[C@@H]([C@H](C)CCCC(C)(C)O)CC[C@@H]23)C[C@@H](O)C[C@@H]1O [JV] | 0.02 | – | Yes | Yes | 37 | lower than 1α,25(OH)2 D3 | No | 0.02 | – | –
– | – | CC1=C(C=C=C2CCC[C@]3(C)[C@@H]([C@H](C)CCCC(C)(C)O)CC[C@@H]23)C[C@@H](O)C[C@@H]1O [JW] | 0.05 | – | Yes | Yes | 700 | – | No | 0.3 | – | –
2110 | – | C=C1CC[C@H](O)C/C1=C/C=C1\CCC[C@]2(C)[C@@H]([C@H](C)Cc3ccc(O)cc3)CC[C@@H]12 [JX] | < 0.05 | – | Yes | Yes | 211,000 | binds very tightly to DBP | No | < 0.05 | – | –
– | – | C=C1CC[C@H](O)C/C1=C/C=C1\CCC[C@]2(C)[C@@H]([C@H](C)Cc3cccc(O)c3)CC[C@@H]12 [JY] | < 0.05 | – | Yes | Yes | 132,000 | – | No | < 0.05 | – | –
– | 60 | C=C1/C(=C\C=C2/CCC[C@]3(C)[C@@H]([C@H](C)CCCC(C)(C)O)C[C@@H]4C[C@@]243)C[C@@H](O)C[C@@H]1O [LO] | 30 | – | Yes | Yes | 60 | lower than 1α,25(OH)2 D3 | No | – | reasonable stimulator of intestinal Ca^2+ absorption (ICA) | highly effective stimulator of bone Ca^2+ mobilizing activity (BCM)
